“Also recorded” adds a separate entry of the source.
Key:
[1] = test system: RA patients derived monocytes/macrophages; test: Inflammatory mediator release from rheumatoid arthritis patients' monocytes/macrophages; format: cell-based, human; details: peripheral and synovial fluid monocytes/macrophages of 7 RA patients; 1 h pre-incubation, CD23 activation; 72 h
Excerpt: Figure 5 p30A inhibits the production of CD23-dependent inflammatory mediator release in cells from rheumatoid arthritis (RA) patients. (A) PBL and synovial monocytes/macrophages from RA patients were labeled with anti-CD23-FITC or isotype-matched (Iso) McAb and compared to healthy PBL. Representative fluorescence intensity data obtained from one case, out of 11 distinct patients or healthy individuals. (B) Inhibition of inflammatory mediator release from RA patients derived monocytes/macrophages. PBL monocytes or macrophages collected from synovial liquid were activated through CD23 after 1 h pre-incubation with/without p30A or pCtl. Cell supernatants were collected 72 h later and nitrites, TNF-α and IL-6 were quantified. Values are expressed as mean±s.e.m from 7 patients' cells.
Peripheral blood samples pre-tested for the absence of HIV or hepatitis virus infections were obtained from healthy volunteers (EFS Aquitaine, Bordeaux Blood Bank). We also collected paired peripheral blood and synovial fluid from seven patients, who fulfilled the American College of Rheumatology criteria for RA, during arthritic crisis. Written informed consent was obtained from all the patients. This study was carried out in compliance with the Helsinski Declaration and was approved by the National Ethical Authorities. All seven patients had previously received conventional therapy but none has been given TNF blocker or any other biologic treatment for their condition. […]
Monocytes or macrophages were activated through CD23 pathway: while monocytes/macrophages from RA patients express CD23, monocytes from healthy donors must be pre-activated to express surface CD23 as described. […] Cells supernatants were then analyzed for their nitric oxide content (see below) and for the presence of cytokines: levels of TNF-α and IL-6 were determined in duplicates for each sample by a specific ELISA (R&D, Paris, France) while levels of IL-1β, IL-8 and IL-10 was determined using FlowCytomix Human Th1/Th2 Kit as recommended (Bender Medsystems, Vienna, Austria). […]

[2] = test system: human CD23+ monocyte-derived macrophages; test: Nitrite (NO) generation by CD23-activated human macrophages, Griess reaction; format: cell-based
Experimental: Figure 2 Inhibition of CD23-mediated activation of iNOS pathway in human macrophages by p30A. Human CD23^+ monocyte-derived macrophages were incubated with cross-linking CD23-McAb (20 µg/ml) alone or following 1 h pre-incubation with 10 µg/ml of various peptides. […] Expression of iNOS mRNA was compared to HPRT mRNA levels. (B) Inhibition of NO generation from human activated macrophages by synthetic peptides. Cell supernatants were collected 72 h following cell cultures and levels of nitrites were determined. […] Results are expressed as mean of 3 distinct donor cell preparations (SEM<20%). (C) Inducible NOS-mediated NO generation in human macrophages is decreased following pre-incubation with p30A or L-NIL prior to CD23-mediated activation. Results are expressed as mean±s.d. of 7 distinct donor cell preparations.
Monocytes or macrophages were activated through CD23 pathway: while monocytes/macrophages from RA patients express CD23, monocytes from healthy donors must be pre-activated to express surface CD23 as described. This pre-activation was obtained by incubation of healthy monocytes with recombinant human IL-4 (20 ng/ml) during 48 h at 37°C; After washing, all cell populations were tested by flow cytometry for their surface CD23 expression (>80% CD23^+) and then incubated in the presence of cross-linking CD23-MAb (clones 135 or DM2, IgG1k, 20 µg/ml) during 48–72 h, or IgE and anti-IgE as described, [17]. When indicated, peptides were added to the cells 2 h prior to their activation. Cells supernatants were then analyzed for their nitric oxide content (see below) and for the presence of cytokines: levels of TNF-α and IL-6 were determined in duplicates for each sample by a specific ELISA (R&D, Paris, France) while levels of IL-1β, IL-8 and IL-10 was determined using FlowCytomix Human Th1/Th2 Kit as recommended (Bender Medsystems, Vienna, Austria).
Culture supernatants (72 h) were assayed for the stable end-product of NO, NO2 ^− using the Griess reaction modified as detailed elsewhere. Inhibitory analog of L-arginine, L-NIL (N(6)-(1-iminoethyl)-L-lysine/2HCl, Coger SA, Paris, France) was used to inhibit iNOS-mediated NO generation. This method gave a sensitivity limit of 0.2 µM if low NO2 ^− medium (DMEM) was used. Total RNA was isolated as above from peritoneal macrophages. Reverse transcription-PCR was performed with an automatic thermal cycler (iCycler, Biorad) using the following specific primers: iNOS mRNA sense (5′-[…]-3′, exon 8) and iNOS mRNA antisense (5′-[…]-3′, exon 11). Hypoxanthine phosphoribosyltransferase (HPRT) mRNA sense (5′-[…]-3′) and HPRT mRNA antisense (5′-[…]- 3′) primers were used as controls. The iNOS messenger is represented by a 371-bp band, whereas a 496-bp band indicates the HPRT messenger.

Substance: FHENWPS [p30A]
- IL-6 release [1]: reversed inflammatory mediators at the same levels than control cell-supernatants
- TNF-α release [1]: reversed inflammatory mediators at the same levels than control cell-supernatants
- nitric oxide (nitrites) release [1]: reversed inflammatory mediators at the same levels than control cell-supernatants
- NO (nitrite) generation, dose-dependence ([2]; CD23-McAb 20 µg/ml, 1 h pre-incubation with peptide, supernatants at 72 h, mean of 3 donors (SEM<20%)): reversed by p30A in a dose-dependent manner; also recorded: Dose-dependent reduction of nitrites
- iNOS-mediated NO generation ([2]; pre-incubation prior to CD23-mediated activation, mean±s.d. of 7 donors (Figure 2C)): decreased

From article PMC2652713, “Molecular Blocking of CD23 Supports Its Role in the Pathogenesis of Arthritis” (PLoS ONE, 2009)
